Experimental data published in patent US9248133B2, “Salts of lorcaserin with optically active acids” (Arena Pharmaceuticals, Inc., priority 2010, dated 2016).

Tests used:
[1] = Deliquescence relative humidity (DRH) by water activity meter; assay type: physicochemical; settings: for DRH (deliquescence relative humidity): saturated aqueous solution with excess solid at 25° C.
Text: If saturated in water with excess solid, a deliquescing compound or salt thereof equilibrated in a closed system at a given temperature produces a % RH in that closed system that is equal to its deliquescing % RH (DRH) at that temperature. Fractional relative humidity is equal to water activity (aw) in the vapor phase and at equilibrium in a closed system, the aw in an aqueous solution is equal to the aw in the vapor phase above the solution (see Equation 1).
A water activity meter was used to measure DRH for selected salts described herein. […] This instrument is designed with temperature control and a small headspace above the enclosed sample to establish equilibrium between solution and vapor phases quickly.

[2] = Aqueous solubility by UPLC; assay type: physicochemical; settings: for Solubility in water: UPLC
Procedure: Acquity ultra performance liquid chromatography (UPLC) from Waters was used for solubility and stoichiometry determination. […] UPLC was equipped with Acquity PDA detector. UPLC mobile phase solvent A was 0.1% TFA in DI-water, solvent B was 0.1% TFA in acetonitrile.
Column temperature was 40±5° C. Acquity UPLC® HSS T3 1.8 μm, 2.1×50 mm column was used.
A known amount of sample was dissolved in water and analyzed by UPLC.

[3] = cited from earlier work
[4] = cited from earlier work; remark: listed apart in the source
[5] = Dynamic moisture-sorption (DMS) analysis; settings: for State of the sample after DMS analysis: after removal from the analyzer, PXRD where done; for DMS weight increase at 70% RH: adsorption cycle, 25° C., Form I
Procedure: Samples were prepared for DMS analysis by placing 5 mg to 20 mg of a sample in a tared sample holder. The sample was placed on the hang-down wire of the VTI balance. A drying step was run, typically at 40° C. and 0.5-1% RH for 1-2 h. The isotherm temperature is 25° C. […] A % weight change smaller than 0.010% over a specified number of minutes (typically 10-20), or up to 2 h, whichever occurs first, is required before continuing to the next % RH hold. The water content of the sample equilibrated as described above was determined at each % RH hold.

[6] = patients who completed 52 weeks of treatment according to the protocol
[7] = pivotal phase 3 program, up to two years
[8] = second phase 3 trial, top quartile of patients

CC1(C)C2CC[C@@]1(CS(=O)(=O)O)C(=O)C2.C[C@H]1CNCCc2ccc(Cl)cc21 [(R)-8-Chloro-1-methyl-2,3,4,5-tetrahydro-1H-3-benzazepine (1S)-(+)-10-Camsylate Salt]
Deliquescence conclusion from DRH ([1]; 25° C.): not deliquescent | DRH (deliquescence relative humidity) [1]: 99.8 % RH | Solubility in water [2]: 20 mg/mL

C[C@H]1CNCCc2ccc(Cl)cc21.C[C@H]1CNCCc2ccc(Cl)cc21.O=C(O)[C@@H](O)[C@H](O)[C@H](O)[C@@H](O)C(=O)O [Compound 1 Hemimucate Salt, Form I, (R)-8-Chloro-1-methyl-2,3,4,5-tetrahydro-1H-3-benzazepine Hemimucate]
Solubility in water [2]: 0.85 mg/mL

C[C@H]1CNCCc2ccc(Cl)cc21.Cl [lorcaserin, (R)-8-Chloro-1-methyl-2,3,4,5-tetrahydro-1H-3-benzazepine hydrochloride]
Average weight loss, % of body weight ([3]; 12 months, ITT-LOCF analysis): 5.8% | Average weight loss, pounds ([3]; 12 months, ITT-LOCF analysis): 12.7 pounds | Patients who lost greater than or equal to 5% of their body weight from baseline ([3]; 12 months, ITT-LOCF analysis): 47.5% | Patients who lost greater than or equal to 10% of their body weight from baseline ([3]; 12 months, ITT-LOCF analysis): 22.6% | Average weight loss of completers, % of body weight [3, 6]: 8.2% | Average weight loss of completers, pounds [3, 6]: 17.9 pounds | Tolerability ([3]; phase 3 trial): generally very well tolerated | FDA-defined valvulopathy (echocardiograms) ([3]; two-year treatment period): no apparent drug-related effect | Excess body weight lost ([4]; first phase 3 trial, based on a normal BMI of 25): about one-third | Patients who achieved at least 5% weight loss [4, 7]: About two-thirds | Patients who achieved at least 10% weight loss [4, 7]: over one-third | Average weight lost, % of weight ([4]; pivotal phase 3 program): about 8% | Depression or suicidal ideation ([4]; pivotal phase 3 program): no signal | Heart rate and blood pressure ([4]; pivotal phase 3 program): went down | Risk of cardiac valvulopathy ([4]; pivotal phase 3 program): did not increase the risk of cardiac valvulopathy | Average weight loss of the top quartile, % of body weight [4, 8]: 16% | Average weight loss of the top quartile, pounds [4, 8]: 35 pounds

(R)-8-Chloro-1-methyl-2,3,4,5-tetrahydro-1H-3-benzazepine Di-camphorate Salt Solvate
DMS weight lost on the desorption phase ([5]; 25° C. and 10% RH): over 1.2% | State of the sample after DMS analysis [5]: crystalline phase did not change | Solubility in water [2]: 38.6 mg/mL | Aqueous solubility expressed as the free base ([2]; water, pH 5.2): 12.3 mg/mL

(R)-8-Chloro-1-methyl-2,3,4,5-tetrahydro-1H-3-benzazepine Glucuronate Salt [Compound 1 Glucuronate Salt, Form I]
Solubility in water [2]: 2.5 mg/mL

(R)-8-Chloro-1-methyl-2,3,4,5-tetrahydro-1H-3-benzazepine Hemi-L-malate Salt [Compound 1 Hemi-L-Malate Salt, Form I]
DRH (deliquescence relative humidity) [1]: 89.9 % RH | Solubility in water [2]: 486.3 mg/mL

(R)-8-Chloro-1-methyl-2,3,4,5-tetrahydro-1H-3-benzazepine Pyroglutamate Salt [Compound 1 Pyroglutamate Salt, Form I]
DMS weight increase at 70% RH [5]: ~17% | DMS weight increase at 70% RH ([5]; listed as Compound 1 Pyrogluconate Salt): FIG. 21: 17-24% weight increase at 70% RH, about | State of the sample after DMS analysis [5]: sticky oil
